Results from patent EP1007514B1, “HETEROCYCLIC KETONES AS NPY Y5 ANTAGONISTS” (BAYER CORPORATION, priority 1997, dated 1999).

Tests used:
[1] = molecular target: T1, human NPY Y5 receptor subtype (Homo sapiens, UniProt Q15761); test: NPY Y5 receptor membrane binding, [125I]PYY (human); settings: membrane protein; 75-100 pM [125I]PYY; 50% inhibition of specific binding; read-out: IC50 (µM) NPY receptor indicated hY5
T1 sequence (Q15761 1-445): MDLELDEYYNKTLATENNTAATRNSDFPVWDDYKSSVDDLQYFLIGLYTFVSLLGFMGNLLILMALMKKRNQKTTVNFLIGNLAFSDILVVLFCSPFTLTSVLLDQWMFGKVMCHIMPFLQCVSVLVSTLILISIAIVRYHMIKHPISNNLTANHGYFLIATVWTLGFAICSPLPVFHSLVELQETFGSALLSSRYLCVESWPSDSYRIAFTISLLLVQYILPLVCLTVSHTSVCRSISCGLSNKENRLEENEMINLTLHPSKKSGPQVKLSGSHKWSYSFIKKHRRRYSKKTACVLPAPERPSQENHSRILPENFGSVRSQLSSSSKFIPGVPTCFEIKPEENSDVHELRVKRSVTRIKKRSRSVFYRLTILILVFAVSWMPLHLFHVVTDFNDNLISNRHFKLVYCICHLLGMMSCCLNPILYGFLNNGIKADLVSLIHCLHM
Protocol: (§1) Assays to determine human and rat NPY Y5 receptor subtype binding affinity are performed on GF/C Millipore 96-well plates pretreated with 0.02% polyethylenimine. The binding buffer is 25 mM Tris, 120 mM NaCl, 5 mM KCl, 1.2 mM KH2PO4, 2.5 mM CaCl2, 1.2 mM MgSO4, 0.1% BSA and 0.5 mg/ml bacitracin, pH 7.4. Samples consist of membrane protein, 75-100 pM [^125I] PYY (porcine, NEN-DuPont) and test compounds diluted in binding buffer. Nonspecific binding is defined by 1 µM PYY. After a 2 hour incubation at room temperature with constant mixing, the samples are aspirated on a vacuum manifold and rinsed with ice-cold binding buffer. The amount of radioactivity in each well is quantitated with either gamma counting or liquid scintillation. IC50 values, which correspond to 50% inhibition of specific binding, are determined with non-linear regression analysis.

[2] = molecular target: T2, rat NPY Y5 receptor subtype (Rattus norvegicus, UniProt Q63634); test: NPY Y5 receptor membrane binding, [125I]PYY (rat); settings: for IC50: membrane protein, 75-100 pM [125I]PYY, 50% inhibition of specific binding, read-out: IC50 (µM) NPY receptor indicated rY5; for NPY receptor indicated rY5, %@1µM: printed in the rY5 IC50 column
T2 sequence (Q63634 1-445): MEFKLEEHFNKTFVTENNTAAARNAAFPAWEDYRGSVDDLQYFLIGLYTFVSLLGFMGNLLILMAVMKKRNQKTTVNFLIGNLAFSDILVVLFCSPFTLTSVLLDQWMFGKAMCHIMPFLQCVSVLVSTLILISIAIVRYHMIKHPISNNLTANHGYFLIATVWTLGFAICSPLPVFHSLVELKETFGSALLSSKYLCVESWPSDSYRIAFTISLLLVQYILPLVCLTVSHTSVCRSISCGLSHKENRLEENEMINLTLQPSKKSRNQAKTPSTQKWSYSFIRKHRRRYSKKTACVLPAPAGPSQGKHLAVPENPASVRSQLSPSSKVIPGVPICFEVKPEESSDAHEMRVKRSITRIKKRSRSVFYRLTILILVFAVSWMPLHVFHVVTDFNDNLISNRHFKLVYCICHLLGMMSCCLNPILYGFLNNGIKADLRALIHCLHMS
Protocol: as §1

human Y4/PP1 = human Y4/PP1 (Homo sapiens, UniProt P50391); test: NPY Y4/PP1 receptor membrane binding, [125I] human PP; settings: membrane protein; 50 pM [125I] human PP; test compounds at 5 µM final concentration; read-out: IC50 (µM) NPY receptor indicated hY4/pp1
Protocol: (§2) Assays to determine binding affinity for human NPY Y2 and Y4/PP1 receptor subtypes are performed on GF/C Millipore 96-well plates pretreated with 0.02% polyethylenimine. The binding buffer for rat NPY Y2 receptor subtype binding is Krebs-Ringer bicarbonate (pH 7.4) containing 0.01% BSA and 0.005% bacitracin. Samples consist of membrane protein, 25 pM [^125I]PYY and test compounds at 5 µM final concentration. Nonspecific binding is defined by 1 µM NPY. The binding buffer for human Y4/PP1 binding consists of 137 mM NaCl, 5.4 mM KCl, 0.44 mM KH2PO4, 1.26 mM CaCl2, 0.81 mM MgSO4, 20 mM HEPES, 1 mM dithiothreitol, 0.1% bacitracin, 100 mg/l streptomycin sulfate, 1 mg/l aprotinin, 10 mg/ml soybean trypsin inhibitor and 0.3% BSA, pH 7.4. Samples consist of membrane protein, 50 pM human [^125I] human PP (hPP:NEN DuPont, Boston MA) and test compounds diluted to a final concentration of 5 µM. One µM hPP is used to define nonspecific binding. After a 2 hour incubation at room temperature with constant mixing, the samples are aspirated on a vacuum manifold, and rinsed with ice-cold binding buffer. The amount of radioactivity in each well is quantitated with either gamma counting or liquid scintillation.

rat NPY Y5 receptor = molecular target: T3, rat NPY Y5 receptor (Rattus norvegicus, UniProt Q63634); test: In vitro functional assay, forskolin-stimulated cAMP in cells stably expressing the receptor; format: cell-based; settings: percentage of forskolin-stimulated adenylate cyclase; 1 µM forskolin; test compound 10 µM; 80 - 120% indicates no significant agonistic effect
T3 construct: expressed in transfected cells
T3 sequence (Q63634 1-445): T2 sequence (Q63634 1-445)
Protocol: An in vitro functional assay to determine rat NPY Y5 receptor subtype binding affinity is performed by resuspending cells stably expressing the rat NPY Y5 receptor in serum-free DMEM containing 10 mM HEPES (pH 7.4) and 1 mM isobutylmethylxanthine (IBMX). One µM forskolin and test compounds at a final concentration of 10 µM are then added to the cells. After a 20 minute incubation of the samples at 37°C, the assay is stopped by placing the samples in boiling water for 3 minutes. The cAMP produced in each sample is quantitated with a radioimmunoassay kit (NEN DuPont). Data are expressed as a percentage of forskolin-stimulated adenylate cyclase. Data between 80 - 120% indicates no significant agonistic effect.

[3] = molecular target: T4, human NPY Y1 receptor subtype (Homo sapiens, UniProt P25929); test: NPY Y1 receptor binding, [125I]PYY on SK-N-MC cells; settings: test compounds at 5 µM final concentration, [125I]PYY about 50 pM, read-out: IC50 (µM) NPY receptor indicated hY1
T4 construct: host or cells: SK-N-MC cells
T4 sequence (P25929 1-384): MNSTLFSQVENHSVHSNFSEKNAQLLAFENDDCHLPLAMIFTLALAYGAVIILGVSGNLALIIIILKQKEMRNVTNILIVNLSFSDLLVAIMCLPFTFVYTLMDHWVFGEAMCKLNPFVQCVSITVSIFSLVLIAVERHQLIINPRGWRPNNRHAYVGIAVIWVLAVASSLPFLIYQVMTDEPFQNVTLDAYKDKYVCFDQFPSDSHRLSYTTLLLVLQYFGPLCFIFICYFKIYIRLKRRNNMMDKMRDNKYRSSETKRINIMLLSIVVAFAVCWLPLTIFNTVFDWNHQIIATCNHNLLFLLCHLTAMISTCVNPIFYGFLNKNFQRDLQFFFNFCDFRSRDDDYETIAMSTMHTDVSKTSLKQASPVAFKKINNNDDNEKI
Protocol: For instance, test compounds antagonistic to human NPY Y1 receptor subtype can be identified by a modified method of Gordon et al., J. Neurochem. 55:506-513,(1990), wherein SK-N-MC cells (ATCC, Rockville, ND) are plated in 24-well plates. Once confluent, the cells are rinsed with Dulbecco's phosphate buffered saline (DPBS). Cells are then preincubated in binding buffer containing serum-free DMEM, 25 mM HEPES (pH 7.3), 0.5% bovine serum albumin (BSA), 0.1% bacitracin and 0.1mM phenylmethylsulfonyl fluoride for 30 minutes at room temperature. Test compounds at a final concentration of 5 µM, and [^125I] PYY (about 50 pM:NEN-DuPont) are added to the wells, and the cells are incubated for an additional 3 hours at room temperature, followed by rinsing with ice-cold DPBS. Nonspecific binding is defined with 1 µM NPY. After lysing the cells with 1% Triton X-100, the amount of radioactivity in the lysates is quantitated with a gamma counter.

human NPY Y2 = molecular target: T5, human NPY Y2 (Homo sapiens, UniProt P49146); test: NPY Y2 receptor membrane binding, [125I]PYY; settings: membrane protein; 25 pM [125I]PYY; test compounds at 5 µM final concentration; read-out: IC50 (µM) NPY receptor indicated hY2
T5 sequence (P49146 1-381): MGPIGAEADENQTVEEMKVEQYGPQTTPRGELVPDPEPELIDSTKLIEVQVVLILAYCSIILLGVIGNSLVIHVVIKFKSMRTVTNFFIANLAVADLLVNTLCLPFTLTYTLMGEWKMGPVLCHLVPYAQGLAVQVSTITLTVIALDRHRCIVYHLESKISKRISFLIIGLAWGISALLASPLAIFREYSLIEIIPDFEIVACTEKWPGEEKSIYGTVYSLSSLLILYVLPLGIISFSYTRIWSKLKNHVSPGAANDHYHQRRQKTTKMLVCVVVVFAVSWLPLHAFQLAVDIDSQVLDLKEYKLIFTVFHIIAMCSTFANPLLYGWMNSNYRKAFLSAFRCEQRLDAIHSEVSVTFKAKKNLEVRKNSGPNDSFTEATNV
Protocol: as §2, with “The binding buffer for rat NPY Y2 receptor subtype binding is Krebs-Ringer bicarbonate (pH 7.4) containing 0.01% BSA and 0.005% bacitracin.” left out

Sequence of human Y4/PP1 (P50391 whole entry): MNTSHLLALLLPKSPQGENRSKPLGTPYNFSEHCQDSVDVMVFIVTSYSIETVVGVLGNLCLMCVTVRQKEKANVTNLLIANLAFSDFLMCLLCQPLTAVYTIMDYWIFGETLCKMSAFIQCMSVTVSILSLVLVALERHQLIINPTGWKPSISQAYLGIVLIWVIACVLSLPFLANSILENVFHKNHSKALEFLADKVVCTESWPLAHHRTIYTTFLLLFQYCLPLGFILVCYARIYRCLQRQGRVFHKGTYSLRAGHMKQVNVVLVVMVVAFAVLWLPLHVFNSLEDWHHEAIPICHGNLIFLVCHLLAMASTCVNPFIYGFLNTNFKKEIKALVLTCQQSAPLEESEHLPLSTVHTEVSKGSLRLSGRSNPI

Structure (SMILES) | IC50 [1] [µM] | IC50 (human Y4/PP1) [µM] | IC50 [3] [µM] | IC50 (human NPY Y2) [µM] | NPY receptor indicated rY5, %@1µM [2] [%@1µM] | IC50 [2] [µM] | % forskolin at 10 µM (rat NPY Y5 receptor) [%]
Cc1ccc(S(=O)(=O)CC(C(=O)c2nc3cc(C)ccc3[nH]2)c2ccccc2)cc1 (centres unmarked) [Compound 13, (5-Methyl-1H-benzoimidazol-2-yl)-2-phenyl-3-(toluene-4-sulfonyl)-propan-1-one] | 0.045 | > 5 | – | > 5 | – | 0.036 | –
Cc1ccc([S+]([O-])CC(C(=O)c2nc3ccccc3[nH]2)c2ccccc2)cc1 (centres unmarked) [Compound 5, (1H-Benzoimidazol-2-yl)-2-phenyl-3-(toluene-4-sulfinyl)-propan-1-one] | 0.025 | > 5 | – | > 5 | – | 0.025 | –
O=C(c1nc2ccccc2[nH]1)C(CS(=O)(=O)c1cccc2ccccc12)c1ccccc1 (centres unmarked) [Compound 12, 1-(1H-Benzoimidazol-2-yl)-3-(naphthalene-1-sulfonyl)-2-phenyl-propan-1-one] | 0.011 | > 5 | > 5 | > 5 | – | – | –
Cc1ccc(SCC(C(=O)c2nc3ccccc3[nH]2)c2ccccc2)cc1 (centres unmarked) [Compound 4, (1H-Benzoimidazol-2-yl)-2-phenyl-3-p-tolylsulfanyl-propan-1-one] | – | > 5 | – | > 5 | 2 | – | –
Cc1ccc(S(=O)(=O)CC(C(=O)c2ccc3ccccc3n2)c2ccccc2)cc1 (centres unmarked) [Compound 1] | – | > 5 | > 5 | > 5 | – | 9.8 | 78

Further lines, with some results ahead:

IC50 [1] [µM] | IC50 (human Y4/PP1) [µM] | IC50 [3] [µM] | IC50 (human NPY Y2) [µM] | NPY receptor indicated rY5, %@1µM [2] [%@1µM] | Structure (SMILES) | IC50 [2] [µM] | % forskolin at 10 µM (rat NPY Y5 receptor) [%]
0.015 | > 5 | > 5 | – | – | Cc1ccc(S(=O)(=O)CC(C(=O)c2nc3ccccc3[nH]2)c2ccc(F)cc2)cc1 (centres unmarked) [Compound 9, 1-(1H-Benzoimidazol-2-yl)-2-(4-fluoro-phenyl)-3-(toluene-4-sulfonyl)-propan-1-one] | 0.014 | 105
0.008 | > 5 | – | > 5 | – | O=C(c1nc2ccccc2[nH]1)C(CS(=O)(=O)c1ccc(Br)cc1)c1ccccc1 (centres unmarked) [Compound 11, 1-(1H-Benzoimidazol-2-yl)-3-(4-bromo-benzenesulfonyl)-2-phenyl-propan-1-one] | – | –
0.005 | > 5 | > 5 | > 5 | – | Cc1ccc(S(=O)(=O)CC(C(=O)c2nc3ccccc3[nH]2)c2ccccc2)cc1 (centres unmarked) [Compound 15, 1-(1H-Benzoimidazol-2-yl)-2-phenyl-3-(toluene-4-sulfonyl)-propan-1-one] | – | –
– | > 5 | – | > 5 | 30 | Cc1ccc(S(=O)(=O)CC(C(=O)c2ncc[nH]2)c2ccccc2)cc1 (centres unmarked) [Compound 3, (1H-Imidazol-2-yl)-2-phenyl-3-(toluene-4-sulfonyl)-propan-1-one] | – | –
